Where a name gives a salt, the structure may show the parent alone.

The assay has as its system Acinetobacter baumannii ATCC 17961. Briefly: Antimicrobial susceptibility testing: 90% growth inhibitory concentration (IC90) determination. It counts as cell-based. Particulars: ATCC17961, Acinetobacter baumannii ATCC 17961, Iso-Sensitest broth, read-out: ATCC 17961 IC90. In short, it runs like this:
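Broth microdilution in Iso-Sensitest medium, twofold series (e.g. 50 to 0.097 μM final), ~5×10^5 CFU/ml inoculum, 35±2 °C. OD600 read every 20 min over 16 h. IC90 derived from growth inhibition during logarithmic phase.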
As to `Cn1c(-c2cn(CC=C(F)F)nc2C(F)(F)F)cnc1C(=O)Nc1ccc(C(=O)N[C@H]2C[C@@H](N)C2)c(Cl)c1` [Example 307, rac-N-(4-(((1s,3s)-3-aminocyclobutyl)carbamoyl)-3-chlorophenyl)-5-(1-(3,3-difluoroallyl)-3-(trifluoromethyl)-1H-pyrazol-4-yl)-1-methyl-1H-imidazole-2-carboxamide 2,2,2-trifluoroacetate], the IC90 turned out to be 375 nM. Next, `CSc1ccc(NC(=O)c2ncc(-c3cn(CC(F)F)nc3C(F)(F)F)n2C)cc1C` [Example 308, 5-[1-(2,2-difluoroethyl)-3-(trifluoromethyl)pyrazol-4-yl]-1-methyl-N-(3-methyl-4-methylsulfanyl-phenyl)imidazole-2-carboxamide]: 377 nM; `Cn1c(-c2cn(C3CC3)nc2C(F)(F)F)cnc1C(=O)Nc1ccc(C(=O)N2CCN(C(=O)CC3CCNCC3)CC2)c(Cl)c1` [Example 309, N-(3-chloro-4-(4-(2-(piperidin-4-yl)acetyl)piperazine-1-carbonyl)phenyl)-5-(1-cyclopropyl-3-(trifluoromethyl)-1H-pyrazol-4-yl)-1-methyl-1H-imidazole-2-carboxamide hydrochloride]: 378 nM; `Cn1c(-c2cn(C3CC3)nc2C(F)(F)F)cnc1C(=O)Nc1ccc(C(=O)N2CCN(C(=O)C3CNCCC3O)CC2)c(Cl)c1` (stereo not drawn) [Example 311, N-[3-chloro-4-[4-(4-hydroxypiperidine-3-carbonyl)piperazine-1-carbonyl]phenyl]-5-[1-cyclopropyl-3-(trifluoromethyl)pyrazol-4-yl]-1-methylimidazole-2-carboxamide;hydrochloride]: 382 nM.

Take `C/C=C/Cn1cc(-c2cnc(C(=O)Nc3ccc(C(=O)N4CCN(C(=O)C5CCNCC5)CC4)c(Cl)c3)n2C)c(C(F)(F)F)n1` [Example 312, (E)-5-(1-(but-2-en-1-yl)-3-(trifluoromethyl)-1H-pyrazol-4-yl)-N-(3-chloro-4-(4-(piperidine-4-carbonyl)piperazine-1-carbonyl)phenyl)-1-methyl-1H-imidazole-2-carboxamide hydrochloride]: the IC90 was found to be 385 nM. Next, `Cn1c(-c2cn(C3CC3)nc2C(F)(F)F)cnc1C(=O)Nc1ccc(C(=O)N2CCN(C(=O)[C@H]3C[C@H](O)CN3)CC2)c(Cl)c1` [Example 313, N-(3-chloro-4-(4-((2R,4S)-4-hydroxypyrrolidine-2-carbonyl)piperazine-1-carbonyl)phenyl)-5-(1-cyclopropyl-3-(trifluoromethyl)-1H-pyrazol-4-yl)-1-methyl-1H-imidazole-2-carboxamide hydrochloride]: 386 nM; `Cn1c(-c2cn(C3CC3(F)F)nc2C(F)(F)F)cnc1C(=O)Nc1ccc(C(=O)NCCCCNC(=O)OC(C)(C)C)c(Cl)c1` (stereo not drawn) [Example 314, tert-butyl (4-(2-chloro-4-(5-(1-(2,2-difluorocyclopropyl)-3-(trifluoromethyl)-1H-pyrazol-4-yl)-1-methyl-1H-imidazole-2-carboxamido)benzamido)butyl) carbamate]: 388 nM. Consider `Cn1c(-c2cn(CC#N)nc2C(F)(F)F)cnc1C(=O)Nc1ccc(C(=O)N[C@H]2C[C@H](NC(=O)[C@@H]3CCNC3)C2)c(Cl)c1` [Example 315, N-[3-chloro-4-[[3-[[(3R)-pyrrolidine-3-carbonyl]amino]cyclobutyl]car-bamoyl]phenyl]-5-[1-(cyanomethyl)-3-(trifluoromethyl)pyrazol-4-yl]-1-methylimidazole-2-carboxamide;formic acid], for which the concentration for an effect of 90% (IC90) was 390 nM. Next, `Cn1c(-c2cn(CC#N)nc2C(F)(F)F)cnc1C(=O)Nc1ccc(C(=O)N[C@H]2C[C@@H](NC(=O)N3CC[C@@H](N)C3)C2)c(Cl)c1` [Example 316, N-[4-[[3-[[(3R)-3-aminopyrrolidine-1-carbonyl]amino]cyclobutyl]car-bamoyl]-3-chloro-phenyl]-5-[1-(cyanomethyl)-3-(trifluoromethyl)pyrazol-4-yl]-1-methyl-imidazole-2-carboxamide; formic acid]: 392 nM.

Values taken from patent US11390604B2 (Hoffmann-La Roche Inc., priority 2019, dated 2022).
